Reference: patent US7482329B2, “Single domain TDF-related compounds and analogs thereof” (Thrasos Therapeutics, priority 2002, dated 2009)

Key:
HK-2 cells = assay: Anti-inflammatory activity in HK-2 cell culture (FIG. 11-13); assay type: cell-based, human; conditions: marker not stated
Protocol: (§1) The immortalized PTEC-derived HK-2 (Human Kidney-2) cells (ATCC number CRL-2190) were grown in serum-free keratinocyte medium (GIBCO number 17005-042) supplemented with epidermal growth factor (EGF: 5 ng/mL) and bovine pituitary extract (40 ug/mL) for 48 hours as described previously (Ryan et al (1994) Kidney International 45:48-57). Cells were transferred to 24-well plates at a density of 3×10^5 cells per well. After 24 hours, cells were incubated with fresh medium containing TNF-alpha (5 ng/mL) for 20 hours. Controls received medium alone. Then cells were washed twice with fresh culture medium and further incubated with culture medium alone (medium control, and TNF control wells) or TDF-1 at three different concentrations (40, 200 or 1000 ng/mL) or TDFRP compounds at three different concentrations (4, 20 or 100 uM) for sixty hours. During incubation, cells were kept in a 5% CO2 humid atmosphere at 37° C. At the end of the incubation, the media were removed and stored frozen until assayed. The concentrations of IL-6 and sICAM-in culture supernatants were measured by specific ELISA.

[1] = system: IL-6 in HK2 human transformed kidney proximal tubule cells; assay: IL-6 level in HK-2 cell medium after TNF-alpha stimulation (ELISA); assay type: cell-based; conditions: after TNF-alpha inflammatory stimulation, FIG. 6, FIG. 10
Protocol: as §1
Dilute the capture antibody to the working concentration in PBS, pH 7.4 without carrier protein. Add 61 uL of stock antibody (360 ug/mL) to 10.939 mL of PBS, gently vertex. Immediately coat a 96 well microplate (Immulon 4 HBX) with 100 uL per well of the diluted capture antibody. Seal the plate and incubate it overnight in cold (4° C.). (PBS: 8.1 mM Na2HPO4, 1.5 mM KH2PO4, 137 mM NaCl, 2.7 mM KCl, pH 7.4, 0.2 um filtered). Next day empty the wells and wash the wells three times, each time using 340 uL of wash buffer per well. (wash buffer: PBS, pH 7.4 containing 0.05% Tween-20).
Prepare blocking buffer, 35 mL per plate. To prepare blocking buffer, add 0.35 grams of BSA and 1.75 grams of sucrose to 35 mL of PBS, pH 7.4, and mix the contents gently. Add 300 uL of blocking buffer to each well and incubate the plate for a minimum of 1 hour at room temperature. Empty the wells and wash wells three times, each time using 340 uL of wash buffer per well.
Prepare a 8 point standard curve using 2-fold serial dilutions in reagent diluent. Dilute stock standard, recombinant IL-6, 70 ng/mL to an initial concentration of 2400 ng/mL in reagent diluent. Then further dilute the standard to a working range, 1200, 600, 300, 150, 75, 37.5, 18.75 and 9.375 ng/mL using reagent diluent. (to prepare reagent diluent, add 0.4 grams of BSA to 40 mL of PBS, pH 7.4 and gently vertex). Also dilute 24 uL of each sample medium (from HK-2 cell cultures) with 376 uL of reagent diluent. Add 100 uL of standard or sample per well, seal the plate and incubate it overnight in cold (4° C.).
Next day, empty the wells and wash wells three times, each time using 340 uL of wash buffer per well. […]

[2] = biological target: T1, BMPR-1A (ALK3) receptor extra cellular domain (Homo sapiens, UniProt P36894); assay: Radio-ligand receptor binding assay, competition with 125I-labeled TDF-1 for ALK-3; conditions: competitive binding assay, FIG. 2
T1 construct: immobilized BMPR-1A receptor extra cellular domain (ECD)
T1 sequence (P36894 24-152 limits assumed, species assumed): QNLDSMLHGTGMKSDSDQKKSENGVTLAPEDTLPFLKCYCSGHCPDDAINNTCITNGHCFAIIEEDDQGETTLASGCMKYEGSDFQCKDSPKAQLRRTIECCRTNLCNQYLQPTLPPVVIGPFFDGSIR
Text: (§2) General protocol: These assays are based on competition between ^125I-labeled TDF-1 (BMP-7 or OP-1) and candidate TDFRP compounds or unlabeled TDF-1 for binding to respective receptors (ALK-3, ALK-6 or BMPR-2). In brief, the procedure involves immobilization of receptor on 96 well Removawell plates, blocking the wells with 3% BSA in PBS and subsequently washing the wells. Increasing concentrations of unlabeled TDF-1 or TDFRP compounds or control (unlabeled TDF-1) prepared in binding buffer are then added. Incubate plate for 1 hour at room temperature, and then add a fixed amount of ^125I-labeled TDF-1 (250,000 to 350,000 cpm) to the wells and further incubate in cold (4° C.) for 20 hours. Aspirate the contents of the wells and wash the wells four times with a wash buffer, and count the receptor bound ^125I-labeled TDF-1 in an auto gamma counter. B. HK-2 Cell Culture and Determination of Cytokine Production

[3] = biological target: T2, BMPR-2 receptor extra cellular domain (Homo sapiens, UniProt Q13873); assay: Radio-ligand receptor binding assay, competition with 125I-labeled TDF-1 for BMPR-2; conditions: competitive binding, FIG. 4
T2 construct: immobilized BMPR-2 receptor extra cellular domain (ECD)
T2 sequence (Q13873 27-150 limits assumed): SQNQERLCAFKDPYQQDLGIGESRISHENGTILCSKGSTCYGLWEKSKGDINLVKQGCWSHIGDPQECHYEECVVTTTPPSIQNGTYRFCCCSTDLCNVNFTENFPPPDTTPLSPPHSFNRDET
Text: as §2

Substance | anti-inflammatory activity (HK-2 cells) | other results
CYFDDNSNVICKKYRS [SEQ ID NO:42] | no anti-inflammatory activity | 
CYFDDSSQVICKKYRS [SEQ ID NO:43] |  | effect on level of IL-6 in HK2 cell medium [1]: brings the IL-6 level down below the basal level
CIVNSSDDFLCKKYRS [SEQ ID NO:16, negative control peptide] |  | specific binding to ALK3 / inhibition of specific binding of labeled TDF-1 to ALK3 receptor [2]: does not inhibit; specific binding to BMPR-2 / inhibition of specific binding of labeled TDF-1 to BMPR-2 receptor [3]: does not inhibit
CYFDDSSNVICKK [SEQ ID NO:20] | no anti-inflammatory activity | 
TP2.006: peptide printed as SEQ ID NO:45 in FIG. 12 legend; conflicts with TP2.003 = SEQ ID NO:45 in b271 (CYFDDSSNVLCKKYRS) | no anti-inflammatory activity | 
CYFDDSSNVICK [SEQ ID NO:21] | no anti-inflammatory activity | specific binding to ALK3 / inhibition of specific binding of labeled TDF-1 to ALK3 receptor [2]: specifically binds
CLFDDSSNVICKKYRS [SEQ ID NO:15] | very weak anti-inflammatory activity | 
